Reference: publication PMC7539012, “Hyperphosphorylated tau aggregation and cytotoxicity modulators screen identified prescription drugs linked to Alzheimer's disease and cognitive functions” (Scientific Reports, 2020)
Where a name gives a salt, the structure may show the parent alone. *1 amine or outer side, *2 acyl side, *3 side chain or, on linkers, in order; H or OH if unused. Where a SMILES comes first, the peptide text is derived from it. Bridges are numbered along the chain shown (N, C = ends). [ ]: non-standard residue; d: D form. The star is where a group is joined. X1 = NC1=N[C@@H](O)C[C@H]([C@H](N[*:1])C(=O)[*:2])N1; ΔAla(Z-3-ureido) = NC(=O)N/C=C(\N)C(=O)O; β3hOrn = NCCC[C@H](N)CC(=O)*; Dap = NC[C@H](N)C(=O)O

test system: T1, 1N4R p-tau; assay: p-tau aggregation modulator screen of 1280-compound library (ThS fluorescence net change over 16 h); type: biochemical; details: not given
T1 construct: made in house; host or cells: E. coli (PIMAX system)

Row | SMILES | ThS net change
1 | Cc1nc2n(c(=O)c1CCN1CCC(c3noc4cc(F)ccc34)CC1)CCCC2 [Risperidone] | 447
2 | C/C(=C(/CCO)SSCC1CCCO1)N(C=O)Cc1cnc(C)nc1N.Cl (stereo not shown) [Fursultiamine Hydrochloride] | 360
3 | CCN(CC)CC(=O)Nc1c(C)cccc1C [Lidocaine hydrochloride] | 271
4 | CC(=O)O[C@H]1C[C@@H]2CC[C@@H]3[C@H](CC[C@@]4(C)[C@H]3C[C@H]([N+]3(C)CCCCC3)[C@@H]4OC(C)=O)[C@@]2(C)C[C@@H]1[N+]1(C)CCCCC1 [Pancuronium bromide] | 491
5 | CN1CC[C@@]2(C)c3cc(O)ccc3N(C)[C@H]12.O=C(O)/C=C/C(=O)O [(-)-Eseroline fumarate salt] | 309
6 | CCC(=O)O[C@@](Cc1ccccc1)(c1ccccc1)[C@@H](C)CN(C)C [Levopropoxyphene napsylate] | 434
7 | NCC[C@H](O)C(=O)N[C@@H]1C[C@H](N)[C@@H](O[C@H]2O[C@H](CN)[C@@H](O)[C@H](O)[C@H]2O)[C@H](O)[C@H]1O[C@H]1O[C@H](CO)[C@@H](O)[C@H](N)[C@H]1O.O.O [Amikacin hydrate] | 418
8 | C[C@]12CCC(=O)C(O)=C1CC[C@@H]1[C@@H]2CC[C@]2(C)C(=O)CC[C@@H]12 [Formestane] | 413
9 | O=C(O)c1cn(C2CC2)c2cc(N3CCNCC3)c(F)cc2c1=O [Ciprofloxacin hydrochloride monohydrate] | 361

same assay, conditions: 1280-compound library screen; ThS fluorescence net change over 16 h

Row | SMILES | ThS net change
10 | C[C@@H]1[C@H](O)[C@@H](C)/C=C/C=C/C=C/C=C/C=C/C=C/C=C/[C@H](O[C@@H]2O[C@H](C)[C@@H](O)[C@H](N)[C@@H]2O)C[C@@H]2O[C@](O)(C[C@@H](O)C[C@@H](O)[C@H](O)CC[C@@H](O)C[C@@H](O)CC(=O)O[C@H]1C)C[C@H](O)[C@H]2C(=O)O [Amphotericin B] | 396
11 | C/C=C(/C(=C/C)c1ccc(O)cc1)c1ccc(O)cc1 [Dienestrol] | 410
12 | CCOC(=O)[C@@](C)(N)Cc1ccc(O)c(O)c1 [Methyldopate hydrochloride] | 385
13 | O=C(c1ccccc1)c1ccc2n1CCC2C(=O)O (stereo not shown) [Ketorolac tromethamine] | 382
14 | Nc1nc2c(ncn2CCC(CO)CO)c(=O)[nH]1 [Penciclovir] | 397
15 | CCCCC1C(=O)N(c2ccccc2)N(c2ccc(O)cc2)C1=O (stereo not shown) [Oxyphenbutazone] | 398
16 | CCCCNc1cc(C(=O)O)cc(S(N)(=O)=O)c1Oc1ccccc1 [Bumetanide] | 408
17 | Cc1ncc([N+](=O)[O-])n1CC(O)CCl (stereo not shown) [Ornidazole] | 383
18 | CCCCOc1ccc(OCCCN2CCOCC2)cc1 [Pramoxine hydrochloride] | 381
19 | CCN(CC)CC#CCOC(=O)C(O)(c1ccccc1)C1CCCCC1 (stereo not shown) [Oxybutynin chloride] | 400
20 | CCCCOC(=O)c1ccc(N)cc1 [Butamben] | 387
21 | Nc1ccn([C@@H]2O[C@H](CO)[C@@H](O)[C@@H]2O)c(=O)n1 [Cytarabine] | 392
22 | O=C1CCc2ccc(OCCCCN3CCN(c4cccc(Cl)c4Cl)CC3)cc2N1 [Aripiprazole] | 386
23 | CCCC(C(=O)OCCN(CC)CC)(c1ccccc1)c1ccccc1 [Proadifen hydrochloride] | 390

same assay, conditions: 1280-compound library screen; […]

Row | SMILES | ThS net change
24 | CC(Oc1ccccc1)C(=O)N[C@@H]1C(=O)N2[C@@H]1SC(C)(C)[C@@H]2C(=O)[O-].[K+] (stereo partly shown) [Phenethicillin potassium salt] | 387

same assay, conditions: library screen, ThS fluorescence net change over 16 h with p-tau

Row | SMILES | ThS net change
25 | CC1CCc2cc(F)cc3c(=O)c(C(=O)O)cn1c23 (stereo not shown) [Flumequine] | 303
26 | COc1cc(C(=O)NCc2ccc(OCCN(C)C)cc2)cc(OC)c1OC [Trimethobenzamide hydrochloride] | 322
27 | CCC(NC(C)C)C(O)c1ccc(O)c(O)c1.CS(=O)(=O)O (stereo not shown) [Isoetharine mesylate salt] | 313
28 | CCN(CC)CCOC(=O)C1(C2CCCCC2)CCCCC1 [Dicyclomine hydrochloride] | 282
29 | CN1CCC[C@@H]1CCO[C@](C)(c1ccccc1)c1ccc(Cl)cc1 [Clemastine fumarate] | 268
30 | O=c1[nH]cnc2c1ncn2[C@H]1CC[C@@H](CO)O1 [Didanosine] | 321
31 | Cl.Clc1ccc(Cn2c(CN3CCCC3)nc3ccccc32)cc1 [Clemizole hydrochloride] | 325
32 | COc1ccc(C(Cl)=C(c2ccc(OC)cc2)c2ccc(OC)cc2)cc1 [Chlorotrianisene] | 235

same assay, conditions: p-tau aggregation modulator screen of 1280-compound library; ThS fluorescence net change

Row | SMILES | ThS net change
33 | Nc1nc(=O)c2c([nH]1)NCC(CNc1ccc(C(=O)N[C@@H](CCC(=O)[O-])C(=O)[O-])cc1)N2C=O.[Ca+2] (stereo partly shown) [Folinic acid calcium salt] | 359
34 | NC(CO)C(=O)NNCc1ccc(O)c(O)c1O (stereo not shown) [Benserazide hydrochloride] | 372
35 | Cc1ccccc1N1C(=O)c2cc(S(N)(=O)=O)c(Cl)cc2NC1C (stereo not shown) [Metolazone] | 364
36 | Nc1nc2[nH]nnc2c(=O)[nH]1 [Azaguanine-8] | 377
37 | CC(=O)N1CCN(c2ccc(OCC3COC(Cn4ccnc4)(c4ccc(Cl)cc4Cl)O3)cc2)CC1 (stereo not shown) [Ketoconazole] | 350
38 | CC(C(=O)O)c1ccc(N2Cc3ccccc3C2=O)cc1 (stereo not shown) [Indoprofen] | 364
39 | NS(=O)(=O)Cc1noc2ccccc12 [Zonisamide] | 341
40 | C[C@]12CC[C@@H]3c4ccc(O)cc4CC[C@H]3[C@@H]1CCC2=O [Estrone] | 344
41 | C#C[C@]1(OC(C)=O)CC[C@H]2[C@@H]3CCC4=C[C@@H](OC(C)=O)CC[C@@H]4[C@H]3CC[C@@]21C [Ethynodiol diacetate] | 355
42 | CCC(=O)OCC(=O)[C@@]1(OC(=O)CC)[C@@H](C)C[C@H]2[C@@H]3CCC4=CC(=O)C=C[C@]4(C)[C@@]3(Cl)[C@@H](O)C[C@@]21C [Beclomethasone dipropionate] | 354
43 | NC(=O)N1c2ccccc2CC(=O)c2ccccc21 [Oxcarbazepine] | 376
44 | Cc1c(-c2ccccc2)oc2c(C(=O)OCCN3CCCCC3)cccc2c1=O [Flavoxate hydrochloride] | 359
45 | Cc1cnc(NC(=O)C2=C(O)c3ccccc3S(=O)(=O)N2C)s1 [Meloxicam] | 375
46 | CC(C)(C)NCC(O)c1ccc(O)c(CO)c1 (stereo not shown) [Salbutamol] | 367
47 | CCn1cc(C(=O)O)c(=O)c2cc(F)c(N3CCN(C)CC3)cc21 [Pefloxacine] | 352
48 | O=C(N[C@H](CO)[C@H](O)c1ccc([N+](=O)[O-])cc1)C(Cl)Cl [Chloramphenicol] | 344
49 | CC(=O)c1ccc(S(=O)(=O)NC(=O)NC2CCCCC2)cc1 [Acetohexamide] | 360

same assay, conditions: p-tau aggregation modulator screen of 1280-compound library; […]

Row | SMILES | ThS net change
50 | Cl.O[C@@H]1CCCC[C@H]1N1CCC(c2ccccc2)CC1 [L(-)-vesamicol hydrochloride] | 360
51 | COc1c(O[C@@H]2O[C@H](CO)[C@@H](O)[C@H](O)[C@H]2O)cc2c(c1OC)-c1ccc(SC)c(=O)cc1[C@@H](NC(C)=O)CC2 [Thiocolchicoside] | 370
52 | CC[C@@]1([C@@H]2O[C@@H]([C@H]3O[C@@](O)(CO)[C@H](C)C[C@@H]3C)C[C@@H]2C)CC[C@H]([C@]2(C)CC[C@]3(C[C@H](O)[C@@H](C)[C@@H]([C@@H](C)[C@@H](OC)[C@H](C)C(=O)[O-])O3)O2)O1.[Na+] [Monensin sodium salt] | 342
53 | CN1Cc2c(N)cccc2C(c2ccccc2)C1 (stereo not shown) [Nomifensine maleate] | 340
54 | CCN(CC)CCCC(C)Nc1ccnc2cc(Cl)ccc12 (stereo not shown) [Chloroquine diphosphate] | 338
55 | CC(=O)N(CC(O)CN(C(C)=O)c1c(I)c(C(=O)NCC(O)CO)c(I)c(C(=O)NCC(O)CO)c1I)c1c(I)c(C(=O)NCC(O)CO)c(I)c(C(=O)NCC(O)CO)c1I (stereo not shown) [Iodixanol] | 338
56 | COc1ccc(CN2CCNCC2)c(OC)c1OC [Trimetazidine dihydrochloride] | 365
57 | O=P(O)(O)C(Cl)(Cl)P(=O)(O)O [Clodronate] | 370

same assay, conditions: p-tau aggregation modulator screen of the compound library, ThS fluorescence net change

Row | SMILES | ThS net change
58 | CC[C@H]1OC(=O)[C@H](C)[C@@H](O[C@H]2C[C@@](C)(OC)[C@@H](O)[C@H](C)O2)[C@H](C)[C@@H](O[C@@H]2O[C@H](C)C[C@H](N(C)C)[C@H]2O)[C@](C)(O)C[C@@H](C)[C@@H]2N[C@@H](COCCOC)O[C@H]([C@H]2C)[C@]1(C)O [Dirithromycin] | 418
59 | CN(Cc1ccc(C(C)(C)C)cc1)Cc1cccc2ccccc12 [Butenafine Hydrochloride] | 436
60 | NCCC[C@H](N)CC(=O)N[C@H]1CNC(=O)[C@H]([C@H]2C[C@H](O)N=C(N)N2)NC(=O)/C(=C/NC(N)=O)NC(=O)[C@H](CO)NC(=O)[C@H](CO)NC1=O.O=S(=O)(O)O [Viomycin sulfate] (β3hOrn-[Dap]SS[ΔAla(Z-3-ureido)][X1]; lactam 1-C) | 453
61 | O=C1[C@H]2CCCC[C@H]2C(=O)N1CCCCN1CCN(c2nsc3ccccc23)CC1 [Perospirone] | 426
62 | O=C(CCCN1CCN(c2ccccn2)CC1)c1ccc(F)cc1 [Azaperone] | 419
63 | CN1CCN(c2c(F)cc3c(=O)c(C(=O)O)cn4c3c2SCC4)CC1 [Rufloxacin] | 476
64 | CN(C)CCC=C1c2ccccc2C=Cc2ccccc21 [Cyclobenzaprine hydrochloride] | 414
65 | CC(=O)O[C@H]1C[C@@]2(C)[C@@H](C[C@@H](O)[C@H]3[C@@]4(C)CC[C@@H](O)[C@@H](C)[C@@H]4CC[C@@]32C)/C1=C(\CCC=C(C)C)C(=O)O [Fusidic acid sodium salt] | 438
66 | CC(C)(C)C(=O)OCOC(=O)[C@@H]1N2C(=O)[C@@H](NC(=O)[C@H](N)c3ccccc3)[C@H]2SC1(C)C [Pivampicillin] | 481
67 | CC(C)n1c(/C=C/C(O)CC(O)CC(=O)O)c(-c2ccc(F)cc2)c2ccccc21 (stereo not shown) [Fluvastatin sodium salt] | 473
